Among the data in PubChem BioAssay (NCI) are GI50 and TGI values, retold here.

Values joined by “and” are separate entries in the source; they are usually repeats but may differ in a detail not shown here. Equal values may be shown once.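 Where inhibition never reached the appropriate level, the endpoint shown equals the highest concentration tested. Otherwise, values were interpolated linearly from a five-concentration, 48-hour dose response in 96-well plates. GI50 is the concentration that inhibits growth by half. Definition used: TGI = concentration required for complete inhibition of growth.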 Where only a bound is given, the exact number is not on record here.

Some test systems named below: CCRF-CEM leukemia; MDA-MB-435; 786-0 renal; SF-295 CNS; SNB-19 CNS; COLO 205 colon; MALME-3M melanoma; SK-MEL-28 melanoma; A498 renal; NCI-H522 lung.
What all share (experiment): DTP human tumour cell line panel, 48 h

The GI50 is the concentration that inhibits growth by half. As usually defined, the TGI is the concentration at which net growth stops. Read a high TGI as lower sensitivity of the cells.

`O=[N+]([O-])c1ccc(Oc2cccc(C(F)(F)F)c2)c([N+](=O)[O-])c1`: the GI50 in the experiment with CCRF-CEM leukemia is 296 nM; with MDA-MB-435, 1670 nM; in the experiment with 786-0 renal it was 3240 nM; in the experiment with SF-295 CNS, 2870 nM; with SNB-19 CNS, 5.25 µM; in the experiment on COLO 205 colon, 2640 nM. The GI50 in the experiment on MALME-3M melanoma is 5660 nM; with SK-MEL-28 melanoma it was 6470 nM; in the experiment with A498 renal, 12700 nM; in the experiment with NCI-H522 lung, 2110 nM. Moreover, the concentration for total growth inhibition (TGI) in the experiment on CCRF-CEM leukemia is 3.18 µM; in the experiment with MDA-MB-435 it was 3.93 µM; with 786-0 renal, 9.81 µM; in the experiment on SF-295 CNS, 11.3 µM; with SNB-19 CNS it was 18.3 µM; in the experiment with COLO 205 colon, 6.04 µM. In addition, the TGI came out at 23.9 µM in the experiment with MALME-3M melanoma, 19.9 µM in the experiment on SK-MEL-28 melanoma, 25.3 µM in the experiment on A498 renal and 5.7 µM in the experiment with NCI-H522 lung.

For the compound `Cc1cc(N2CCN(C)CC2)nc(N(CCNc2ccnc3cc(Cl)ccc23)Cc2ccco2)n1`, the GI50 in the experiment with CCRF-CEM leukemia was 3370 nM; in the experiment on MDA-MB-435, 1620 nM; in the experiment on 786-0 renal, 1930 nM; in the experiment on SF-295 CNS it was 1800 nM; with SNB-19 CNS it was 4.92 µM; in the experiment on COLO 205 colon, 1880 nM. The GI50 in the experiment with MALME-3M melanoma is 1940 nM; in the experiment on SK-MEL-28 melanoma it was 1710 nM; in the experiment with A498 renal, 4790 nM; with NCI-H522 lung it was 3510 nM. The total growth inhibition concentration (TGI) with CCRF-CEM leukemia was determined as 10.2 µM; in the experiment on MDA-MB-435 it was 3.39 µM; in the experiment on 786-0 renal, 4.83 µM; in the experiment on SF-295 CNS, 3.79 µM; in the experiment on SNB-19 CNS it was 16.5 µM; with COLO 205 colon, 5.18 µM. Further, the concentration for total growth inhibition (TGI) is 3.71 µM with MALME-3M melanoma, 3.31 µM in the experiment on SK-MEL-28 melanoma, 17.3 µM in the experiment with A498 renal and 13.3 µM with NCI-H522 lung.

For the compound `COc1ccc(C2=NNC(c3cc(Cc4ccc(O)c(C5CC(c6ccc(OC)cc6)=NN5)c4)ccc3O)C2)cc1` (stereo not given), the GI50 with CCRF-CEM leukemia is 3850 nM; with MDA-MB-435 it was 8520 nM; in the experiment with 786-0 renal, 8390 nM; in the experiment with SF-295 CNS it was 21200 nM; with SNB-19 CNS, 6.89 µM; in the experiment on COLO 205 colon it was 19400 nM. Also, the GI50 was 48900 nM in the experiment with MALME-3M melanoma, 10200 nM in the experiment with SK-MEL-28 melanoma, 71900 nM with A498 renal and 3640 nM with NCI-H522 lung. Also, the concentration for total growth inhibition (TGI) in the experiment with CCRF-CEM leukemia was more than 100 µM; in the experiment on MDA-MB-435, more than 100 µM; with 786-0 renal it was 93.4 µM; in the experiment on SF-295 CNS, more than 100 µM; with SNB-19 CNS it was more than 100 µM; in the experiment with COLO 205 colon, more than 100 µM. Further, the TGI with MALME-3M melanoma was more than 100 µM; in the experiment on SK-MEL-28 melanoma, 34.1 µM; in the experiment on A498 renal, more than 100 µM; with NCI-H522 lung it was 23.4 µM.

Take `Cc1cc2oc(=O)c(Cl)c(Cl)c2c(C)c1Cl`: the concentration for total growth inhibition (TGI) in the experiment with CCRF-CEM leukemia amounted to 7.04 µM; in the experiment on MDA-MB-435, 15.3 µM; in the experiment with 786-0 renal, 10.2 µM; in the experiment with SF-295 CNS, 31.9 µM; in the experiment on SNB-19 CNS, 24.6 µM; in the experiment on COLO 205 colon, 8.09 µM. The TGI in the experiment with MALME-3M melanoma is 23.7 µM; with SK-MEL-28 melanoma, 28.9 µM; in the experiment on A498 renal, 34 µM; in the experiment on NCI-H522 lung, 28.3 µM.

In the case of `O=C(CCCCCNC1=CC(=O)c2ccccc2C1=O)NCCC[Te]c1ccccc1`, the 50% growth inhibitory concentration (GI50) was 251 nM in the experiment with CCRF-CEM leukemia; 1920 nM in the experiment with MDA-MB-435; 2000 nM in the experiment on 786-0 renal; 248 nM with SF-295 CNS; 1.64 µM with SNB-19 CNS; 416 nM in the experiment on COLO 205 colon. Also, the GI50 is 2210 nM in the experiment with MALME-3M melanoma, 1210 nM with SK-MEL-28 melanoma, 302 nM in the experiment with A498 renal and 1750 nM with NCI-H522 lung. Moreover, the TGI is 0.774 µM with CCRF-CEM leukemia; 4.67 µM in the experiment with MDA-MB-435; 4.17 µM in the experiment with 786-0 renal; 0.686 µM with SF-295 CNS; 9.65 µM with SNB-19 CNS; 1.36 µM in the experiment on COLO 205 colon. Besides, the concentration for total growth inhibition (TGI) in the experiment on MALME-3M melanoma amounted to 4.21 µM; with SK-MEL-28 melanoma it was 3.34 µM; in the experiment with A498 renal, 1.66 µM; in the experiment with NCI-H522 lung, 81.5 µM.

As for `O=C(NC1CCNCC1)c1[nH]ncc1NC(=O)c1c(Cl)cccc1Cl`, the GI50 in the experiment on CCRF-CEM leukemia is 331 nM and 335 nM; in the experiment with MDA-MB-435 it was 370 nM and 335 nM; in the experiment with 786-0 renal it was 1000 nM and 543 nM; in the experiment on SF-295 CNS, 1130 nM and 1010 nM; with SNB-19 CNS, 0.361 µM and 0.336 µM; in the experiment on COLO 205 colon, 218 nM and 182 nM. Also, the 50% growth inhibitory concentration (GI50) is 325 nM and 257 nM in the experiment on MALME-3M melanoma; 430 nM and 568 nM with SK-MEL-28 melanoma; 552 nM and 698 nM in the experiment with A498 renal; 387 nM and 280 nM with NCI-H522 lung. Besides, the TGI is more than 100 µM in the experiment with CCRF-CEM leukemia; 1.72 µM and 1.58 µM with MDA-MB-435; more than 100 µM in the experiment on 786-0 renal; more than 51.8 µM with SF-295 CNS; more than 60 µM in the experiment with SNB-19 CNS; 0.558 µM and 0.726 µM with COLO 205 colon. The TGI in the experiment on MALME-3M melanoma is 1.68 µM and 1.03 µM; with SK-MEL-28 melanoma it was 2.32 µM and 3.96 µM; in the experiment with A498 renal it was 1.77 µM and 1.78 µM; in the experiment on NCI-H522 lung, 1.94 µM and 2.17 µM.

Regarding `NC(Cn1ccc(=O)c(O)c1)C(=O)O` (stereo not given), the total growth inhibition concentration (TGI) with CCRF-CEM leukemia, in the experiment on MDA-MB-435, in the experiment on 786-0 renal, in the experiment with SF-295 CNS, in the experiment with SNB-19 CNS and with COLO 205 colon was more than 100 µM in each case. For the same compound, the TGI in the experiment with MALME-3M melanoma, in the experiment on SK-MEL-28 melanoma, in the experiment on A498 renal and with NCI-H522 lung was more than 100 µM throughout.

With `C[C@@H](Oc1cc(-c2cnn(C3CC4(CNC4)C3)c2)cnc1N)c1c(Cl)ccc(F)c1Cl`, the GI50 was 681 nM in the experiment with CCRF-CEM leukemia; 1160 nM with MDA-MB-435; 5600 nM with 786-0 renal; 1410 nM in the experiment with SF-295 CNS; 9.7 µM in the experiment with SNB-19 CNS; 1380 nM in the experiment on COLO 205 colon. The GI50 was 1530 nM in the experiment on MALME-3M melanoma, 1740 nM in the experiment with SK-MEL-28 melanoma, 1100 nM with A498 renal and 10200 nM in the experiment on NCI-H522 lung. For the same compound, the concentration for total growth inhibition (TGI) worked out at 6.97 µM with CCRF-CEM leukemia; 14.2 µM in the experiment with MDA-MB-435; 19.1 µM in the experiment with 786-0 renal; 13.6 µM in the experiment on SF-295 CNS; 24.3 µM in the experiment on SNB-19 CNS; 3.3 µM in the experiment on COLO 205 colon. The TGI in the experiment with MALME-3M melanoma is 3.89 µM; in the experiment with SK-MEL-28 melanoma it was 4 µM; in the experiment with A498 renal it was 4.81 µM; with NCI-H522 lung, 25.4 µM.
